Reference: patent US20130251644A1, “Cyclodextrin-Based Microemulsions, and Dermatological Uses Thereof” (PRECISION DERMATOLOGY, INC., priority 2012, published 2013)

Legend:
[1] = Solubility/dispersibility of retinol in the Labrasol-HPGCD-water systems and in water; format: physicochemical
Excerpt: Microemulsion preparation: Any two components (examples: Labrasol®-water, HPXCD-water, or Labrasol®-HPXCD) were mixed (in different ratios) in different scintillation vials and then the third component was titrated to each vial until a clear-to-turbid or turbid-to-clear transition occurred (in simple situations). Finally wt % percentages data for each component (Labrasol®, water, and cyclodextrin) were plotted to construct the ternary phase diagram.
Cyclodextrin used: hydroxypropyl-X-cyclodextrin (X=alpha, beta, or gamma).
Any two components (examples: Labrasol®-water, cyclodextrin-water, or Labrasol®-HPBCD) were mixed (in different ratios) in different scintillation vials and then the third component was titrated to each vial until a clear-to-turbid or turbid-to-clear transition occurred (in simple situations). Finally wt % percentages data for each component (Labrosol, water, and cyclodextrin) were plotted to construct the ternary phase diagram.

[2] = cited from earlier work

## CC1=C(/C=C/C(C)=C/C=C/C(C)=C/CO)C(C)(C)CCC1 [solid retinol, Retinol]
[1]; cyclodextrin-based microemulsion systems
  amount of retinol that can be incorporated into the cyclodextrin-based microemulsions: greater than 1.0 wt %
[1]; final retinol concentration 1.2%, clear transparent system (vials 8 and 1, FIG. 4(b), 4(c))
  miscibility in Labrasol®-HPGCD-water microemulsion system: complete miscibility
[2]
  miscibility in water: immiscible in water
